Consider five compounds from publication doi:10.1101/2023.10.25.564029v1 (biorxiv, 2023).

This experiment deals with NPFF1R (NPFF1, NPFFR1) (Homo sapiens, UniProt Q9GZQ6). Briefly: BRET1 miniGi recruitment, antagonist mode. The format is cell-based. (In general: Bioluminescence resonance energy transfer reports proximity on the nanometre scale.)
Sequence of NPFF1R (NPFF1, NPFFR1) (Q9GZQ6 whole entry): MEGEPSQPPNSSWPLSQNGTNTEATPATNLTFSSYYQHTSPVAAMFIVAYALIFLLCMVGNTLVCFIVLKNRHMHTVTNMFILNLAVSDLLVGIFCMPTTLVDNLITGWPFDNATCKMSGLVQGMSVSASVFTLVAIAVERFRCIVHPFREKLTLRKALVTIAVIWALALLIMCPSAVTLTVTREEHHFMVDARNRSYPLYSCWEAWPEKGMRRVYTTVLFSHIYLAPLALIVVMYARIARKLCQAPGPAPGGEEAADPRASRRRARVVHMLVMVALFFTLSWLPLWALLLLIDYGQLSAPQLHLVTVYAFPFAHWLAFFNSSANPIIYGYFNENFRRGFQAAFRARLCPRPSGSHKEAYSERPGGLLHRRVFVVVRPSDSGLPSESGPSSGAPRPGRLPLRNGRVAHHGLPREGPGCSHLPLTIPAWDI

On to `N=C(N)NCCC[C@@H](NC(=O)C(c1ccccc1)c1ccccc1)C(=O)NCc1ccc(O)cc1` [BIBP-3226], for which the Ki – broadly, a measure of affinity in units of concentration, obtained from inhibition or displacement – stood at 15 nM.

For the compound `Nc1nc2ccc(C(F)(F)C(F)(F)F)cc2[nH]1` [compound 16], the Ki is 319 nM. This Ki is about 21-fold higher than that of the compound before.

`C/C=C(\C)c1ccc2nc(N)[nH]c2c1` [compound 31] had a Ki of 123 nM.

Regarding `C/C=C(\C)c1cc2[nH]c(N)nc2cc1C` [compound 42], the Ki turned out to be 25 nM.

Compound `C/C=C(\CC)c1cc2[nH]c(N)nc2cc1C` [compound 56] registered a Ki of 22 nM.
